Measurements from US9649315B2, “Composition useful for treating disorders related to TRPA1” (HYDRA BIOSCIENCES, INC., priority 2008, dated 2017).

What was measured:
[1] = tested on: AITC-induced pain behavior; assay: AITC-induced pain behavior (automated flinch detecting system) in the rat; assay type: in vivo; conditions: 50 mg/kg oral gavage
Description: Compound 1 was tested in the automated flinch detecting system described by Yaksh et al., J. Appl. Physiol 90: 2386-2402 (2001). A small metal band was loosely placed around each rat's left hind paw. The fasted rats were dosed (50 mg/kg) via oral gavage with Compound 1 (8 animals) or vehicle (8 animals, 30% Captisol® in water, pH 10). The rats were acclimatized in the test chamber prior to allyl isothiocyanate (AITC) administration. AITC was then injected into the paw of each animal, and the animal was promptly returned to the chamber. The number of paw flinches was monitored for 60 minutes. After 10 minutes, animals receiving vehicle flinched a total of about 350 times, while the treated animals flinched about 200 times. After 60 minutes the animals that had received vehicle prior to AITC administration flinched about 1950 times, while the compound pre-treated animals flinched about 1000 times.

[2] = tested on: formalin-induced pain behavior; assay: Formalin-induced pain behavior in rats; assay type: in vivo, rat; conditions: 50 mg/kg oral, one hour prior to intraplantar formalin (3%), observed for 2 minutes following injection
Description: Compound 1 was tested in the formalin-induced pain test reported by Dubuisson et al., Pain 1977 December; 4(2):161-74. The compound was dosed orally in rats (8 animals) at 50 mg/kg, one hour prior to intraplantar formalin (3%) injection. The control group (8 animals) received vehicle (30% Captisol® in water, pH 10). […] The duration of pain behavior in the treated animals was reduced by about 30%, compared to the animals who received vehicle.

hTRPA1 channel = hTRPA1 channel (Homo sapiens, UniProt O75762); assay: Inhibition of TRPA1 channel activity; assay type: cell-based; conditions: procedure similar to WO 2007/073505; read-out: IC50 against hTRPA1 channel activity
Sequence of hTRPA1 channel (O75762 whole entry): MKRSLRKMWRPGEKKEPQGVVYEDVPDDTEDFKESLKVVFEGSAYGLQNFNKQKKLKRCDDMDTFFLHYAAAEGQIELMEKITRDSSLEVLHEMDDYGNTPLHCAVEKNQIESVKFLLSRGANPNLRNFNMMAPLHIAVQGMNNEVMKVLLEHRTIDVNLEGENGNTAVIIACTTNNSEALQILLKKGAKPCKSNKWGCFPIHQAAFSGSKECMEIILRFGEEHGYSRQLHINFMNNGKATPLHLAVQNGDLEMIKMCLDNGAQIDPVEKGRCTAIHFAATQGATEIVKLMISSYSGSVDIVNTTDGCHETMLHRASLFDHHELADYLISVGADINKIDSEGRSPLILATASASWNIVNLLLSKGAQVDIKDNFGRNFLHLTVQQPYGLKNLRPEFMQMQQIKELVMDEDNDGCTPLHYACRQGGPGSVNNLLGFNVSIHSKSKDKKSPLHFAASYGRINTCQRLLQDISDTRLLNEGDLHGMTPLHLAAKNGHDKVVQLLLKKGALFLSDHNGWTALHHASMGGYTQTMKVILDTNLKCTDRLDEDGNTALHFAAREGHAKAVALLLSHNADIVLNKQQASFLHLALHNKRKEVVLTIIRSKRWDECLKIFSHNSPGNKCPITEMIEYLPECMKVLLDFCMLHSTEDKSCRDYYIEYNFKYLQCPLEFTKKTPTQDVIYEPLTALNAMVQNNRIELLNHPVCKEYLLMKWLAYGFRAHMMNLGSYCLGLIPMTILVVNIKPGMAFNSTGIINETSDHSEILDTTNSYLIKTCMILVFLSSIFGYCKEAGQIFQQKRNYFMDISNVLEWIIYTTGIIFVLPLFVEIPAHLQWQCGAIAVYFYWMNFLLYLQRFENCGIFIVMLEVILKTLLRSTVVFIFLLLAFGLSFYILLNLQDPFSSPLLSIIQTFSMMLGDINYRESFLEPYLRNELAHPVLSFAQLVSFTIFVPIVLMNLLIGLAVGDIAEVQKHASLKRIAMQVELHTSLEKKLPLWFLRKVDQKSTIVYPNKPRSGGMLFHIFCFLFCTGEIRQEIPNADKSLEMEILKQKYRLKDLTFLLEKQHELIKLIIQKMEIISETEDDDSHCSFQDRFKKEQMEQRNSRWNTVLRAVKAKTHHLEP
Description: Compound 1 was tested using a procedure similar to the procedure outlined in WO 2007/073505.

C[C@H]1CCCN1c1ccc(-c2csc(NC(=O)Cn3cnc4c3c(=O)n(C)c(=O)n4C)n2)cc1F [Compound 1]
total number of paw flinches after 10 minutes ([1]; fasted rats, AITC injected into paw, after 10 minutes (vehicle about 350)): about 200 times | total number of paw flinches after 60 minutes ([1]; fasted rats, AITC injected into paw, after 60 minutes (vehicle about 1950)): about 1000 times | effect on AITC-induced pain behavior ([1]; rats): able to reduce the AITC-induced pain behavior | reduction of duration of pain behavior compared to vehicle [2]: about 30% | IC50 (hTRPA1 channel): ~4 nM
